Test results taken from patent publication US11479587B2, “Cationic intrinsically disordered antimicrobial peptides” (priority 2016, dated 2022).
Values joined by “and” are separate entries in the source; they are usually repeats but may differ in a detail not shown here. Identical values can stand only once. Residues, ends and D or L forms follow the SMILES beside them.

Tests used:
[1] = system: methicillin-resistant S. aureus strain (ATCC 43300); type: cell-based, Staphylococcus aureus; conditions: ATCC 43300, 18 h
Procedure: Furthermore, sensitivity of a methicillin-resistant S. aureus strain (ATCC 43300) was investigated for palmitoylated CIDAMPs in a microtiter plate screening model, with incubation in Mueller-Hinton medium at 37° C. for 18 h using resazurin as a marker for cell viability.
(§1) A sample of each culture was then diluted 40-fold in fresh broth and incubated at 37° C. for 1.5-3 h. […] All the plates were covered and incubated at 37° C. for 18 h.
(§2) Inhibition of bacterial growth was determined using resazurin as a marker for cell viability. Resazurin was added to each well, at 0.001% final concentration, and plates incubated at 37° C. for 2 h. Fluorescence intensity was measured, using F (top read), ex 560/10 nm, em 590/10 nm, using a Tecan M1000 Pro monochromator plate reader.

[2] = system: multidrug-resistant K. pneumoniae ATCC 700603; type: cell-based, Klebsiella pneumoniae
Procedure: The Gram-negative opportunistic pathogen K. pneumoniae is responsible for a spectrum of community-acquired and nosocomial infections and typically infects patients with indwelling medical devices, on which this microorganism is able to grow as a biofilm.
as §1, §2

[3] = Cytotoxicity (resazurin) assay
How it was run: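 HEK293 cells (4000/well) in DMEM with 10% FBS exposed to compound for 20 h at 37 °C, 5% CO2. Resazurin (100 μM final) added for a further 3 h and fluorescence read at 560/590 nm. CC50 obtained from dose–response fit of percentage cytotoxicity.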

Hemolysis assay = type: cell-based; conditions: for HC50 at 1 h: human, washed erythrocytes from EDTA-blood, pH 7.4
How it was run: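 Washed EDTA-blood erythrocytes in 5% PBS, pH 7.4, were rotated 1 h at 37° C with peptides at 0, 3, 10, 30, 60 μm. Hemoglobin release read at 540 nm as % of 0.1% Triton X-100 hemolysis; CC50 from dose-response curve of triplicates.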

A. baumannii ATCC 19606 = type: cell-based, Acinetobacter baumannii; conditions: ATCC 19606, 2 h
Procedure: as §2

E. coli ATCC 25922 = type: cell-based, Escherichia coli; conditions: ATCC 25922, 2 h
Procedure: as §2

P. aeruginosa ATCC 27853 = type: cell-based, Pseudomonas aeruginosa; conditions: ATCC 27853, 2 h
Procedure: as §2

C. albicans ATCC 928 = conditions: for MIC, C. albicans ATCC 90028: ATCC 928

In the case of CCCCCCCCCCCCCCCC(=O)NCC(=O)N[C@H](CCCNC(=N)N)C(=O)N[C@H](CCCNC(=N)N)C(=O)NCC(=O)NCC(=O)N[C@H](CCCNC(=N)N)C(=O)NCC(=O)NCC(=O)N[C@H](CCCNC(=N)N)C(=O)NCC(=O)N[C@H](CCCNC(=N)N)C(=O)NCC(=O)N[C@H](CCCNC(=N)N)C(=O)O [D-Pal-GR13] (HELM PEPTIDE1{[CCCCCCCCCCCCCCCC(=O)[*:2]].G.[dR].[dR].G.G.[dR].G.G.[dR].G.[dR].G.[dR]}$$$$V2.0), the “MIC, S. aureus ATCC 43300” value [1] is reported as ≥2 µg/mL, the “MIC, K. pneumoniae ATCC 700603” value [2] is reported as ≥32 µg/mL and the CC50 [3] is reported as > 32 µg/mL and > 20.1 µM. For the same compound, the HC50 (Hemolysis assay) was 65 µg/mL, the HC50 at 1 h (Hemolysis assay) was 24.5 µM and the “MIC, A. baumannii ATCC 19606” value (A. baumannii ATCC 19606) was ≥8 µg/mL. For the same compound, the “MIC, E. coli ATCC 25922” value (E. coli ATCC 25922) was ≥8 µg/mL, the “MIC, P. aeruginosa ATCC 27853” value (P. aeruginosa ATCC 27853) was ≥16 µg/mL and the “MIC, C. albicans ATCC 90028” value (C. albicans ATCC 928) was ≥8 µg/mL. For the same compound, the “MIC, C. neoformans ATCC 208821” value (C. neoformans) was ≥2 µg/mL.

With CCCCCCCCCCCCCCCC(=O)NCC(=O)N[C@@H](CCCNC(=N)N)C(=O)N[C@@H](CCCNC(=N)N)C(=O)NCC(=O)NCC(=O)N[C@@H](CCCNC(=N)N)C(=O)NCC(=O)NCC(=O)N[C@@H](CCCNC(=N)N)C(=O)NCC(=O)N[C@@H](CCCNC(=N)N)C(=O)O [Pal-GR11] (HELM PEPTIDE1{[CCCCCCCCCCCCCCCC(=O)[*:2]].G.R.R.G.G.R.G.G.R.G.R}$$$$V2.0) the “MIC, S. aureus ATCC 43300” value [1] was ≥4 µg/mL, the CC50 [3] was > 32 µg/mL and the HC50 (Hemolysis assay) was 90 µg/mL. For the same compound, the “MIC, A. baumannii ATCC 19606” value (A. baumannii ATCC 19606) was ≥8 µg/mL, the “MIC, E. coli ATCC 25922” value (E. coli ATCC 25922) was ≥8 µg/mL and the “MIC, P. aeruginosa ATCC 27853” value (P. aeruginosa ATCC 27853) was ≥16 µg/mL. For the same compound, the “MIC, C. albicans ATCC 90028” value (C. albicans ATCC 928) was ≥4 µg/mL and the “MIC, C. neoformans ATCC 208821” value (C. neoformans) was ≥4 µg/mL.

For CCCCCCCCCCCCCCCC(=O)NCC(=O)N[C@@H](CCCNC(=N)N)C(=O)N[C@@H](CCCNC(=N)N)C(=O)NCC(=O)NCC(=O)N[C@@H](CCCNC(=N)N)C(=O)NCC(=O)NCC(=O)N[C@@H](CCCNC(=N)N)C(=O)NCC(=O)N[C@@H](CCCNC(=N)N)C(=O)NCC(=O)N[C@@H](CCCNC(=N)N)C(=O)O [Pal-GR13] (HELM PEPTIDE1{[CCCCCCCCCCCCCCCC(=O)[*:2]].G.R.R.G.G.R.G.G.R.G.R.G.R}$$$$V2.0), the “MIC, S. aureus ATCC 43300” value [1] was ≥0.25 µg/mL, the “MIC, K. pneumoniae ATCC 700603” value [2] was ≥16 µg/mL and the CC50 [3] was > 32 µg/mL and > 20.1 µM. For the same compound, the HC50 (Hemolysis assay) was 100 µg/mL, the HC50 at 1 h (Hemolysis assay) was 62 µM and the “MIC, A. baumannii ATCC 19606” value (A. baumannii ATCC 19606) was ≥2 µg/mL. For the same compound, the “MIC, E. coli ATCC 25922” value (E. coli ATCC 25922) was ≥4 µg/mL, the “MIC, P. aeruginosa ATCC 27853” value (P. aeruginosa ATCC 27853) was ≥8 µg/mL and the “MIC, C. albicans ATCC 90028” value (C. albicans ATCC 928) was ≥4 µg/mL. The MIC (C. albicans ATCC 928; ATCC 928, 18 h, pH 7.4) was 1 to 32 µg/mL and the “MIC, C. neoformans ATCC 208821” value (C. neoformans) was ≥0.25 µg/mL.
